Assay [1] concerns the target T1, Serine/threonine-protein kinase Nek1 (Homo sapiens) (UniProt Q96PY6).
T1 sequence (whole entry): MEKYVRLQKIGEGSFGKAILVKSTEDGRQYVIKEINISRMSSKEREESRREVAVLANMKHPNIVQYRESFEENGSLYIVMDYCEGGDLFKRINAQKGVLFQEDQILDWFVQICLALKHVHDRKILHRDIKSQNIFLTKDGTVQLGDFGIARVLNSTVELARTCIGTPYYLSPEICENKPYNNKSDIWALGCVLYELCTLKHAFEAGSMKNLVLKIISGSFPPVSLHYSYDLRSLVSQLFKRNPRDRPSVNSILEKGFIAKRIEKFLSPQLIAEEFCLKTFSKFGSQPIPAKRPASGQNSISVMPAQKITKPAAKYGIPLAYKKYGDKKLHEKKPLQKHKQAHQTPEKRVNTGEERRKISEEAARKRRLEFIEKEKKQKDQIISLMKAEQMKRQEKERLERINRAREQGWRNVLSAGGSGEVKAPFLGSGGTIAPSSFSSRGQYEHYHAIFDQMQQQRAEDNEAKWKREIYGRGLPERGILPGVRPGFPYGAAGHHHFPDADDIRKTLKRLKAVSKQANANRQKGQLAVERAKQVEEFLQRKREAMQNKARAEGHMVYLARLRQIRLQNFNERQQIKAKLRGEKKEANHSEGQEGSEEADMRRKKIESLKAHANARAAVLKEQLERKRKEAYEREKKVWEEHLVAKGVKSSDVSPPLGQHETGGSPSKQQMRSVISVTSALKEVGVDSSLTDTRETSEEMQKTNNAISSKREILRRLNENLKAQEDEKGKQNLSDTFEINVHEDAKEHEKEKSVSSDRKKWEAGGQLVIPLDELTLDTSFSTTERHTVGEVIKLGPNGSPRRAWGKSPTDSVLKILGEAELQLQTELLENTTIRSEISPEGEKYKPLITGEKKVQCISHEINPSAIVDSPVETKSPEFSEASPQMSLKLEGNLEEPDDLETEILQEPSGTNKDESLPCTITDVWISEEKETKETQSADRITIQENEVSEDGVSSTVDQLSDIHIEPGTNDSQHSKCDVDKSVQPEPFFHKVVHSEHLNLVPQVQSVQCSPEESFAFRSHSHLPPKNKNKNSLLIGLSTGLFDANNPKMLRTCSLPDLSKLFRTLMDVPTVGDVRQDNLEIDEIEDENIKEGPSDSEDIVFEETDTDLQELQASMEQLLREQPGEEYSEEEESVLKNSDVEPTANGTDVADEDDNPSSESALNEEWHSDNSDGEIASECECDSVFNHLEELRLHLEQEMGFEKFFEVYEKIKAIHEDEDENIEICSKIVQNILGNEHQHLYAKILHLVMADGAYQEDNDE
As to the kind of experiment: Inhibition of NEK1 (unknown origin) assessed as remaining activity at 1 uM by Kinome scan method relative to control.

Assay [2] deals with T2, Serine/threonine-protein kinase BRSK1 (Homo sapiens) (UniProt Q8TDC3).
T2 sequence (whole entry): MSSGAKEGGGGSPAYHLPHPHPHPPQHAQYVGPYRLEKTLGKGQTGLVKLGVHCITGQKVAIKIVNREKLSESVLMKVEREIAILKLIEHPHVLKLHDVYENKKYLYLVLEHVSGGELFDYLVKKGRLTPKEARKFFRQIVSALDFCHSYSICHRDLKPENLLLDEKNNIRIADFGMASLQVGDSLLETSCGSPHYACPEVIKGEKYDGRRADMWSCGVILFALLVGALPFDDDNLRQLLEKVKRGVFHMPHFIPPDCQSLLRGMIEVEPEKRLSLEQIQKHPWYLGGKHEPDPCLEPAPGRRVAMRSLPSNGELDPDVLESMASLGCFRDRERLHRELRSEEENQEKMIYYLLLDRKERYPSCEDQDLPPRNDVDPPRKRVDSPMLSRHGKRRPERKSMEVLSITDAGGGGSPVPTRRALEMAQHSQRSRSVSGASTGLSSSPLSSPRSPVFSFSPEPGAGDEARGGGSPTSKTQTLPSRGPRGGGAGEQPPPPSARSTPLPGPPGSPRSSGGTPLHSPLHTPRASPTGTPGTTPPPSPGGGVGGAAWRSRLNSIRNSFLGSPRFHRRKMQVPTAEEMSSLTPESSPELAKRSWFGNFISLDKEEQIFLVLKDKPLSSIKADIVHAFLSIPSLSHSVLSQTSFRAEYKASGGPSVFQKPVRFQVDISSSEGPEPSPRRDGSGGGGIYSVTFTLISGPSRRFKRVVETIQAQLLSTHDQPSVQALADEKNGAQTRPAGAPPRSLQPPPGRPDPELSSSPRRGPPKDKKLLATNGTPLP
Nature of the assay: Inhibition of BRSK1 (unknown origin) assessed as remaining activity at 1 uM by Kinome scan method relative to control.

Assay [3] has as its target Cyclin-G-associated kinase (Homo sapiens) (UniProt O14976). Nature of the assay: Inhibition of GAK (unknown origin) assessed as remaining activity at 1 uM by Kinome scan method relative to control.
The target in assay [4] is T3, Muscle, skeletal receptor tyrosine-protein kinase (Homo sapiens) (UniProt O15146).
T3 sequence (whole entry): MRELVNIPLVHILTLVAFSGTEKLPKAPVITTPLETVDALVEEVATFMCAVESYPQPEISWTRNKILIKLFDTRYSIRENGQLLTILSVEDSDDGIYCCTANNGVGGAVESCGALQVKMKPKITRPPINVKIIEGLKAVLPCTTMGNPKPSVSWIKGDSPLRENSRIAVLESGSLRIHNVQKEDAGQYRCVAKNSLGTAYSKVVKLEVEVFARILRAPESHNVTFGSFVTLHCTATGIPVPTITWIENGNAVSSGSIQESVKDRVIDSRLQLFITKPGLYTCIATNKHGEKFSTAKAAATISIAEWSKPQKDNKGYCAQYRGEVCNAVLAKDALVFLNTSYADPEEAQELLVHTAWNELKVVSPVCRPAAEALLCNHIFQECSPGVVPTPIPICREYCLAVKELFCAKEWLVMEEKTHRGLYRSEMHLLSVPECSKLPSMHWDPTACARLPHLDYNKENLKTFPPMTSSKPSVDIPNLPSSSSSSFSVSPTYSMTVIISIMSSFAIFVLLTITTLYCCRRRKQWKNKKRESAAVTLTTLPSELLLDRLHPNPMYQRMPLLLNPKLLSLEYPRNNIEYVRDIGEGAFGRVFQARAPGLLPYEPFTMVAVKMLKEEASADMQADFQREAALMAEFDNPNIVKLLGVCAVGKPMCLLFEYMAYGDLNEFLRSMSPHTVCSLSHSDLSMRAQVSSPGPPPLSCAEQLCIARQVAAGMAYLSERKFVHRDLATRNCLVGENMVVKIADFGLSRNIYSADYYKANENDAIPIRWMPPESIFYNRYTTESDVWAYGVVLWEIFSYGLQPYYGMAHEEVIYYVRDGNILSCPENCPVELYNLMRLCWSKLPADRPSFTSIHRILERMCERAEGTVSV
Nature of the assay: Inhibition of MUSK (unknown origin) assessed as remaining activity at 1 uM by Kinome scan method relative to control.

The structures appear in SMILES notation.

Chain of Cyclin-G-associated kinase (Homo sapiens) (O14976 whole entry): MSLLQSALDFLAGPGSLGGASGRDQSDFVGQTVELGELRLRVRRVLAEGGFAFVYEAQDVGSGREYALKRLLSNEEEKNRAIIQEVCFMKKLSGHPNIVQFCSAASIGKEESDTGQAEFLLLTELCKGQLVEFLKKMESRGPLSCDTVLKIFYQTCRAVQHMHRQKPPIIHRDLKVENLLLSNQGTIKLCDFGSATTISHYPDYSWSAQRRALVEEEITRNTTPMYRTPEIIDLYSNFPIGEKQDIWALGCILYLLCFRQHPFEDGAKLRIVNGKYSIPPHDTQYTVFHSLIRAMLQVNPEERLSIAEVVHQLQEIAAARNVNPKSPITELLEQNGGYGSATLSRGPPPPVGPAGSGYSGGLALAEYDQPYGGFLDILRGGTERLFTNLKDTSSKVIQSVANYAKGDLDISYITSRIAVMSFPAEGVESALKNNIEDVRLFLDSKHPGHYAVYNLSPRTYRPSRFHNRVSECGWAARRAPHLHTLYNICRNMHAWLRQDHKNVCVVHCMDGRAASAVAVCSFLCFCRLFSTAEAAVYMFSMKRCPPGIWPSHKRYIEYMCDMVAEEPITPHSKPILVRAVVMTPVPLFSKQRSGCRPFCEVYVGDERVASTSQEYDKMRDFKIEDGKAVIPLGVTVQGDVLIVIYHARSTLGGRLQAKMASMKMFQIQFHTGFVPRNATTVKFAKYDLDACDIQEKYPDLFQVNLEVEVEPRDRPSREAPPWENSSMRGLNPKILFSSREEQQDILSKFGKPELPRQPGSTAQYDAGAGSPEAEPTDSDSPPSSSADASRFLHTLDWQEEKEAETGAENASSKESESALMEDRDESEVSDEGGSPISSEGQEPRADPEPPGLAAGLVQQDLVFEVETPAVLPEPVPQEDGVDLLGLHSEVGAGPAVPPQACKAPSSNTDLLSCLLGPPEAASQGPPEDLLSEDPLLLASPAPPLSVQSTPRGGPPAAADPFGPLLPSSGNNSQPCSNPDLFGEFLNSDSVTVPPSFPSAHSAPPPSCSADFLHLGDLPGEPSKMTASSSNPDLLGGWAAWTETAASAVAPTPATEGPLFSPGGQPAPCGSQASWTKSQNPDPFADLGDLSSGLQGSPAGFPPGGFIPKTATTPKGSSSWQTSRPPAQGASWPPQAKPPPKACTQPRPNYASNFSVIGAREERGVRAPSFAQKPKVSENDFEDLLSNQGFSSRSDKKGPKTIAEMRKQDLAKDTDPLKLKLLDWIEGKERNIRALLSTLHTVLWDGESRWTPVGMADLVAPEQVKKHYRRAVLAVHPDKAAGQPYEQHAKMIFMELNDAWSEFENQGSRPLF

For the compound `Nc1ccccc1Nc1ccc2c(c1)CCc1ccccc1C2=O`, the Activity in assay [1] amounted to 90%; in assay [2], 98%; in assay [3], 93%; in assay [4], 86%.

For the compound `O=C1c2ccc(Nc3ccc(F)cc3F)cc2CCc2ccc(OC[C@H](O)CO)cc21` [Skepinone-L], the Activity in assay [1] turned out to be 91%; in assay [2] it was 100%; in assay [3] it was 53%; in assay [4], 90%.

The values are drawn from ChEMBL document CHEMBL5696441 (Nat Chem Biol, 2011).
